These compounds were tested against T1, EGFR T790M/L858R (NCI-H1975 cells) (Homo sapiens, UniProt P00533, L858R/T790M) (assay: EGFR (L858R) degradation analysis, Total EGFR (L858R) HTRF, NCI-H1975 cells). Details: 6 hours.
T1 construct: NCI-H1975 (harboring EGFR heterozygous T790M/L858R mutations); host or cells: NCI-H1975
Type: cell-based
Text: NCI-H1975 (harboring EGFR heterozygous T790M/L858R mutations) and NCI-H3255 (harboring EGFR heterozygous L858R mutation) were purchased from ATCC and NCI, respectively. NCI-H1975+CS (harboring EGFR heterozygous T/790M/L858R/C797S mutations) was generated using CRISPR technology to introduce the additional C797S mutation by Horizon Discovery. RPMI 1640 no-phenol red medium and fetal bovine serum (FBS) were purchased from Gibco (Grand Island, NY, USA). Cell culture flasks and 384-well microplates were acquired from VWR (Radnor, PA, USA). Total EGFR (L858R) HTRF assay kits were purchased from Cisbio (Bedford, MA, USA).
Degradation of EGFR protein containing L858R mutation was determined based on quantification of FRET signal using Total EGFR (L858R) HTRF assay kit. Test compounds were added to the 384-well plate from a top concentration of 10 μM with 11 points, half log titration in duplicates. NCI-H1975, NCI-H1975+CS or NCI-H3255 cells were added into 384-well plates at a cell density of 10000, 10000 or 1000 cells per well, respectively. The plates were kept at 37° C. with 5% CO2 for 6 hours. Cells treated in the absence of the test compound were the negative control. Positive control was set by wells containing all reagents but no cells. FRET signal was acquired on EnVision™ Multilabel Reader (PerkinElmer, Santa Clara, CA, USA).

T1 sequence (P00533 25-1210 T790M/L858R): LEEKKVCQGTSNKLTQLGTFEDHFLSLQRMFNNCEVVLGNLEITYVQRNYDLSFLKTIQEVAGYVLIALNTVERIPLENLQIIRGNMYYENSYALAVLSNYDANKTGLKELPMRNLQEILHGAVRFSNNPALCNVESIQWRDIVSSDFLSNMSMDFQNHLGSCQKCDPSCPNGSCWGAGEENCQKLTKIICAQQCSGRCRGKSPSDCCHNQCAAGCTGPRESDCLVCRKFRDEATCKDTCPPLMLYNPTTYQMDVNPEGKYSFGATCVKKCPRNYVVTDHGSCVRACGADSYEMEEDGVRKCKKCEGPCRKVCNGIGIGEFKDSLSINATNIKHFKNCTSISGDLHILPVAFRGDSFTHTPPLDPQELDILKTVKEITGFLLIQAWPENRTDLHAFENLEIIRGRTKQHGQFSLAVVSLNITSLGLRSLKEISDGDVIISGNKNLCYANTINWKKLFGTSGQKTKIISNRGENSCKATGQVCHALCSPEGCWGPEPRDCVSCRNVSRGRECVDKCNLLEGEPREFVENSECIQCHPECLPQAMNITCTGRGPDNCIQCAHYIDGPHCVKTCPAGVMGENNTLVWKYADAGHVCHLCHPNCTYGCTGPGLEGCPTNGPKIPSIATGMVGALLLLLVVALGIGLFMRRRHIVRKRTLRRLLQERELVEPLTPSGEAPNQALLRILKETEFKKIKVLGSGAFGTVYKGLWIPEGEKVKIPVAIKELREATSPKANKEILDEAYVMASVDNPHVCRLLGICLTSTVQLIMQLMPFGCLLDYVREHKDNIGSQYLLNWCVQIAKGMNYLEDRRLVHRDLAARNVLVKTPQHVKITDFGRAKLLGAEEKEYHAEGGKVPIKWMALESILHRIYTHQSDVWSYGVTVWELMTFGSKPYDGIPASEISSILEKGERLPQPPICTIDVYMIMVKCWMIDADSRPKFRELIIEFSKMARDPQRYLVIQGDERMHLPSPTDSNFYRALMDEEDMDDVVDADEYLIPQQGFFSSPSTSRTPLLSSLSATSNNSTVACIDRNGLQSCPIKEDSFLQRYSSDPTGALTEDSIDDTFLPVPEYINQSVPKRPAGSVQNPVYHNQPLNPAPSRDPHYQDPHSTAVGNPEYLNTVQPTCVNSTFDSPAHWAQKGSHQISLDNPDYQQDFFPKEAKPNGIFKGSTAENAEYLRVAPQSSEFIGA

Row | Structure (SMILES) | DC50
1 | O=C1CC[C@@H](Nc2ccc(C3CCN(CC(=O)N4CCN(c5ccc(-c6cc(F)c7c(c6)C(=O)N(C(C(=O)Nc6nccs6)c6ncn8c6CCC8)C7)cc5)CC4)CC3)cc2)C(=O)N1 (stereo partly drawn) [Compound 7, 2-(6,7-dihydro-5H-pyrrolo[1,2-c]imidazol-1-yl)-2-[6-[4-[4-[2-[4-[4-[[(3R)-2,6-dioxo-3-piperidyl]amino]phenyl]-1-piperidyl]acetyl]piperazin-1-yl]phenyl]-4-fluoro-1-oxo-isoindolin-2-yl]-N-thiazol-2-yl-acetamide] | 18 nM
2 | O=C1CCC(Nc2cccc(C3CCN(CC(=O)N4CCN(c5ccc(-c6cc(F)c7c(c6)C(=O)N(C(C(=O)Nc6nccs6)c6ncn8c6CCC8)C7)cc5)CC4)CC3)c2)C(=O)N1 (stereo not shown) [Compound 16, 2-(6,7-dihydro-5H-pyrrolo[1,2-c]imidazol-1-yl)-2-(6-(4-(4-(2-(4-(3-((2,6-dioxopiperidin-3-yl)amino)phenyl)piperidin-1-yl)acetyl)piperazin-1-yl)phenyl)-4-fluoro-1-oxoisoindolin-2-yl)-N-(thiazol-2-yl)acetamide] | 92 nM
3 | O=C1CC[C@@H](Nc2ccc(C3CCN(CC(=O)N4CCC(c5ccc(-c6cc(F)c7c(c6)C(=O)N(C(C(=O)Nc6nccs6)c6ncn8c6CCC8)C7)cc5)CC4)CC3)cc2)C(=O)N1 (stereo partly drawn) [Compound 23, 2-(6,7-dihydro-5H-pyrrolo[1,2-c]imidazol-1-yl)-2-(6-(4-(1-(2-(4-(4-(((R)-2,6-dioxopiperidin-3-yl)amino)phenyl)piperidin-1-yl)acetyl)piperidin-4-yl)phenyl)-4-fluoro-1-oxoisoindolin-2-yl)-N-(thiazol-2-yl)acetamide] | 33 nM
4 | Cn1nc(N2CCC(=O)NC2=O)c2ccc(C3CCN(CC(=O)N4CC5(C4)CN(c4ccc(-c6cc(F)c7c(c6)C(=O)N(C(C(=O)Nc6nccs6)c6ncn8c6CCC8)C7)cc4)C5)CC3(F)F)cc21 (stereo not shown) [Compound 50, 2-(6,7-dihydro-5H-pyrrolo[1,2-c]imidazol-1-yl)-2-[6-[4-[2-[2-[4-[3-(2,4-dioxohexahydropyrimidin-1-yl)-1-methyl-indazol-6-yl]-3,3-difluoro-1-piperidyl]acetyl]-2,6-diazaspiro[3.3]heptan-6-yl]phenyl]-4-fluoro-1-oxo-isoindolin-2-yl]-N-thiazol-2-yl-acetamide] | 10 nM
5 | O=C1CCC(Nc2ccc(C3CCN(CC(=O)N4CCC(Oc5ccc(-c6cc(F)c7c(c6)C(=O)N(C(C(=O)Nc6nccs6)c6ncn8c6CCC8)C7)cc5)CC4)CC3)nc2)C(=O)N1 (stereo not shown) [Compound 36, 2-(6,7-dihydro-5H-pyrrolo[1,2-c]imidazol-1-yl)-2-(6-(4-((1-(2-(4-(5-((2,6-dioxopiperidin-3-yl)amino)pyridin-2-yl)piperidin-1-yl)acetyl)piperidin-4-yl)oxy)phenyl)-4-fluoro-1-oxoisoindolin-2-yl)-N-(thiazol-2-yl)acetamide] | 31 nM
6 | O=C1CCC(Oc2ccc(N3CCN(CC(=O)N4CCC(NC(=O)c5ccc(C#Cc6cc(F)c7c(c6)C(=O)N(C(C(=O)Nc6nccs6)c6ncn8c6CCC8)C7)cn5)CC4)CC3)cc2)C(=O)N1 (racemic) [Compound 3, 5-[2-[7-Fluoro-3-oxo-2-[(1RS)-1-(6,7-dihydro-5H-pyrrolo[1,2-c]imidazol-1-yl)-2-oxo-2-(thiazol-2-ylamino)ethyl]isoindolin-5-yl]ethynyl]-N-[1-[2-[4-[4-[[(3RS)-2,6-dioxo-3-piperidyl]oxy]phenyl]piperazin-1-yl]acetyl]-4-piperidyl]pyridine-2-carboxamide] | 4 nM
7 | O=C1CCC(Nc2ccc(C3CCN(CC(=O)N4CCN(c5ccc(-c6cc(F)c7cn(C(C(=O)Nc8nccs8)c8ncn9c8CCC9)nc7c6)cn5)CC4)CC3)cc2)C(=O)N1 (stereo not shown) [Compound 65, 2-(6,7-dihydro-5H-pyrrolo[1,2-c]imidazol-1-yl)-2-[6-[6-[4-[2-[4-[4-[(2,6-dioxo-3-piperidyl)amino]phenyl]-1-piperidyl]acetyl]piperazin-1-yl]-3-pyridyl]-4-fluoro-indazol-2-yl]-N-thiazol-2-yl-acetamide] | 36 nM
8 | O=C1CCC(Nc2ccc(C3CCN(CC(=O)N4CCN(c5ccc(-c6cc(F)c7c(c6)C(=O)N(C(C(=O)Nc6nccs6)c6ncn8c6CCC8)C7)cc5)CC4)CC3)cc2F)C(=O)N1 (stereo not shown) [Compound 13, 2-(6,7-dihydro-5H-pyrrolo[1,2-c]imidazol-1-yl)-2-[6-[4-[4-[2-[4-[4-[(2,6-dioxo-3-piperidyl)amino]-3-fluoro-phenyl]-1-piperidyl]acetyl]piperazin-1-yl]phenyl]-4-fluoro-1-oxo-isoindolin-2-yl]-N-thiazol-2-yl-acetamide] | 52 nM
9 | O=C1CC[C@H](Nc2ccc(C3CCN(CC(=O)N4CCC(Oc5ccc(-c6cc(F)c7c(c6)C(=O)N(C(C(=O)Nc6nccs6)c6ncn8c6CCC8)C7)cc5)CC4)CC3)c(F)c2)C(=O)N1 (stereo partly drawn) [Compound 39, 2-(6,7-dihydro-5H-pyrrolo[1,2-c]imidazol-1-yl)-2-(6-(4-((1-(2-(4-(4-(((S)-2,6-dioxopiperidin-3-yl)amino)-2-fluorophenyl)piperidin-1-yl)acetyl)piperidin-4-yl)oxy)phenyl)-4-fluoro-1-oxoisoindolin-2-yl)-N-(thiazol-2-yl)acetamide] | 88 nM
10 | O=C1CCC(Nc2ccc(C3CCN(C(=O)CN4CCC(c5ccc(-c6cc(F)c7c(c6)C(=O)N(C(C(=O)Nc6nccs6)c6ncn8c6CCC8)C7)cc5)CC4)CC3)cc2)C(=O)N1 (stereo not shown) [Compound 26, 2-(6,7-dihydro-5H-pyrrolo[1,2-c]imidazol-1-yl)-2-[6-[4-[1-[2-[4-[4-[(2,6-dioxo-3-piperidyl)amino]phenyl]-1-piperidyl]-2-oxo-ethyl]-4-piperidyl]phenyl]-4-fluoro-1-oxo-isoindolin-2-yl]-N-thiazol-2-yl-acetamide] | 26 nM
11 | Cn1nc(N2CCC(=O)NC2=O)c2ccc(C3CCN(CC(=O)N4CC5(C4)CN(c4ccc(-c6cc(F)c7c(c6)C(=O)N(C(C(=O)Nc6ccccn6)c6ncn8c6CCC8)C7)cc4)C5)CC3)cc21 (stereo not shown) [Compound 54, 2-(6,7-dihydro-5H-pyrrolo[1,2-c]imidazol-1-yl)-2-[6-[4-[2-[2-[4-[3-(2,4-dioxohexahydropyrimidin-1-yl)-1-methyl-indazol-6-yl]-1-piperidyl]acetyl]-2,6-diazaspiro[3.3]heptan-6-yl]phenyl]-4-fluoro-1-oxo-isoindolin-2-yl]-N-(2-pyridyl)acetamide] | 16 nM
12 | O=C1CCC(Nc2ccc(N3CCC(O)(CC(=O)N4CCN(c5ccc(-c6cc(F)c7c(c6)C(=O)N(C(C(=O)Nc6nccs6)c6ncn8c6CCC8)C7)cc5)CC4)CC3)c(C(F)(F)F)c2)C(=O)N1 (stereo not shown) [Compound 18, 2-(6,7-dihydro-5H-pyrrolo[1,2-c]imidazol-1-yl)-2-(6-(4-(4-(2-(1-(4-((2,6-dioxopiperidin-3-yl)amino)-2-(trifluoromethyl)phenyl)-4-hydroxypiperidin-4-yl)acetyl)piperazin-1-yl)phenyl)-4-fluoro-1-oxoisoindolin-2-yl)-N-(thiazol-2-yl)acetamide] | 46 nM
13 | O=C1CCC(Nc2ccc(C3CCN(CC(=O)N4CCN(c5ccc(-c6cc(Cl)c7cn(C(C(=O)Nc8nccs8)c8ncn9c8CCC9)nc7c6Cl)cc5)CC4)CC3)cc2)C(=O)N1 (racemic) [Compound 61, (2RS)-2-[4,7-Dichloro-6-[4-[4-[2-[4-[4-[[(3RS)-2,6-dioxo-3-piperidyl]amino]phenyl]-1-piperidyl]acetyl]piperazin-1-yl]phenyl]indazol-2-yl]-2-(6,7-dihydro-5H-pyrrolo[1,2-c]imidazol-1-yl)-N-thiazol-2-yl-acetamide] | 112 nM

Same assay, conditions: 6 hours, class symbols

Row | Structure (SMILES) | DC50
14 | O=C1CCC(c2ccc(N3CCC(O)(CC(=O)N4CCC5(CC4)CN(c4ccc(-c6cc(F)c7c(c6)C(=O)N(C(C(=O)Nc6nccs6)c6ncn8c6CCC8)C7)cc4)C5)CC3)c(F)c2)C(=O)N1 (stereo not shown) [Compound 160, 2-(6,7-dihydro-5H-pyrrolo[1,2-c]imidazol-1-yl)-2-[6-[4-[7-[2-[1-[4-(2,6-dioxo-3-piperidyl)-2-fluoro-phenyl]-4-hydroxy-4-piperidyl]acetyl]-2,7-diazaspiro[3.5]nonan-2-yl]phenyl]-4-fluoro-1-oxo-isoindolin-2-yl]-N-thiazol-2-yl-acetamide] | 50 to 150 nM
15 | O=C1CCC(Nc2cc(F)c(N3CCC(O)(CC(=O)N4CCC5(CC4)CN(c4ccc(-c6cc(F)c7c(c6)C(=O)N(C(C(=O)Nc6nccs6)c6ncn8c6CCC8)C7)cc4)C5)CC3)c(F)c2)C(=O)N1 (stereo not shown) [Compound 137, 2-(6,7-dihydro-5H-pyrrolo[1,2-c]imidazol-1-yl)-2-[6-[4-[7-[2-[1-[4-[[2,6-dioxo-3-piperidyl]amino]-2,6-difluoro-phenyl]-4-hydroxy-4-piperidyl]acetyl]-2,7-diazaspiro[3.5]nonan-2-yl]phenyl]-4-fluoro-1-oxo-isoindolin-2-yl]-N-thiazol-2-yl-acetamide] | 50 to 150 nM
16 | O=C1CC[C@H](Nc2ccc(N3CCC(O)(C(=O)N4CC5(C4)CN(c4ccc(-c6cc(F)c7c(c6)C(=O)N(C(C(=O)Nc6nccs6)c6ncn8c6CCC8)C7)cc4)C5)CC3)c(F)c2)C(=O)N1 (stereo partly shown) [Compound 146, 2-(6,7-dihydro-5H-pyrrolo[1,2-c]imidazol-1-yl)-2-[6-[4-[2-[1-[4-[[2,6-dioxo-3-piperidyl]amino]-2-fluoro-phenyl]-4-hydroxy-piperidine-4-carbonyl]-2,6-diazaspiro[3.3]heptan-6-yl]phenyl]-4-fluoro-1-oxo-isoindolin-2-yl]-N-thiazol-2-yl-acetamide] | < 50 nM

Reference: patent publication US12486290B2, “Isoindolinone and indazole compounds for the degradation of EGFR” (C4 THERAPEUTICS, INC., priority 2019, dated 2025)
